Experimental data taken from US7049332B2, “HIV inhibiting N-aminoimidazole derivatives” (K. U. Leuven Research & Development, priority 2001, dated 2006).
Values after ≈ are worked out from the molar mass of the structure shown.

Tests used:
[1] = tested on: HIV-1 (NL4.3 WT); test: Inhibition of HIV-induced cytopathogenic effect in MT-4 cells (MTT), HIV-1; assay type: cell-based; settings: for IC50: Human immunodeficiency virus 1, MT4, 50% protection against HIV-induced cytopathogenic effect, MT-4 cells, MTT; for HIV-1 (NL4.3 WT) SI: selectivity index = ratio of CC50 to IC50, HIV-1
Method: (§1) A rapid and automated assay procedure was used for the in vitro evaluation of anti-HIV agents. An HTLV-1 transformed T4-cell line MT-4, which was previously shown to be highly susceptible to and permissive for HIV infection, served as the target cell line. Inhibition of the HIV-induced cytopathogenic effect was used as the end point. The viabitlity of both HIV-and mock-infected cells was assessed spectrophotometrically via in situ reduction of 3-(4,5-dimethylthiazol-2-yl)-2,5-diphenyltetrazolium bromide (MTT). The 50% cytotoxic concentration (CC50 in μg/ml) was defined as the concentration of compound that reduced the absorbance of the mock-infected control sample by 50%. The percent protection achieved by the compound in HIV-infected cells was calculated by the following formula:
(§2) [formula] whereby (ODT)HIV is the optical density measured with a given concentration of the test compound in HIV-infected cells; (ODC)HIV is the optical density measured for the control untreated HIV-infected cells; (ODC)MOCK is the optical density measured for the control untreated mock-infected cells; all optical density values were determined at 540 nm. The dose achieving 50% protection according to the above formula was defmed as the 50% inhibitory concentration (IC50 in μg/ml). The ratio of CC50 to IC50 was defined as the selectivity index (SI).
(§3) Cells: MT-4 cells (Miyoshi et al., 1982) were grown and maintained in RPMI 1640 medium supplemented with 10% heat-inactivated fetal calf serum, 2 mM 1-glutamine, 0.1% sodium bicarbonate, and 20 œg of gentamicin per ml.
(§4) Viruses: The HIV-1(NL4.3) strain (Adachi et al., 1986) is a molecular clone obtained from the National Institutes of Health (Bethesda, Md.). The HIV-2(ROD) (Barr,-Sinoussi et al., 1983) stock was obtained from culture supernatant of HIV-2 infected cell lines.

[2] = tested on: HIV-2 (ROD); test: Inhibition of HIV-induced cytopathogenic effect in MT-4 cells (MTT), HIV-2; assay type: cell-based; settings: for IC50: Human immunodeficiency virus 2, MT4, 50% protection against HIV-induced cytopathogenic effect, MT-4 cells, MTT; for HIV-2 (ROD) SI: selectivity index = ratio of CC50 to IC50, HIV-2
Method: as §1, §2, §3, §4

[3] = Cytotoxicity in mock-infected MT-4 cells (MTT); assay type: cell-based; settings: human; mock-infected MT-4 cells, absorbance reduced by 50%, MTT
Method: as §1, with “formula: Examples of inhibition of cell proliferation by particular compounds of formula (I) can be found by looking at the respective CC50 values in the MT-4 cell line. Cells: MT-4 cells (Miyoshi et al., 1982) were grown and maintained in RPMI 1640 medium supplemented with 10% heat-inactivated fetal calf serum, 2 mM […], 0.1% sodium bicarbonate, and 20 œg of gentamicin per ml.” for “formula:”

SMILES	IC50 [1] [µg/mL]	IC50 [2] [µg/mL]	melting point [°C]	HIV-1 (NL4.3 WT) SI [1]	HIV-2 (ROD) SI [2]	CC50 [3] [µg/mL]
CCc1[nH]c(=S)n(Nc2cccc(C)c2)c1-c1ccccc1 [Compound 9.25, 2,3-Dihydro-4-ethyl-1-(3-methylphenylamino)-5-phenyl-1H-imidazole-2-thione]	3.9 (≈ 12.6 µM)	> 19.8	202 to 204	5.0	<1	19.8 (≈ 64 µM)
Cc1ccc(Nn2c(-c3ccccc3)c(C)[nH]c2=S)cc1C [Compound 9.13, 2,3-Dihydro-1-(3,4-dimethylphenylamino)-4-methyl-5-phenyl-1H-imidazole-2-thione]	1.1 (≈ 3.55 µM)	> 17.9	228	16.3	<1	17.9 (≈ 57.8 µM)
Cc1[nH]c(=S)n(Nc2cccc(F)c2)c1-c1ccccc1 [Compound 9.18, 2,3-Dihydro-1-(3-fluorophenylamino)-4-methyl-5-phenyl-1H-imidazole-2-thione]	5.5 (≈ 18.4 µM)	> 47.3	226	8.6	<1	47.3 (≈ 158 µM)
Cc1[nH]c(=S)n(Nc2cccc(Cl)c2)c1-c1cccc(Cl)c1 [Compound 9.07, 5-(3-Chlorophenyl)-1-(3-chlorophenylamino)-2,3-dihydro-4-methyl-1H-imidazole-2-thione]	0.9 (≈ 2.57 µM)	1.4 (≈ 4 µM)	204	18.3	11.6	15.9 (≈ 45.4 µM)
Cc1[nH]c(=S)n(Nc2cccc([N+](=O)[O-])c2)c1-c1ccccc1 [Compound 9.17, 2,3-Dihydro-4-methyl-1-(3-nitrophenylamino)-5-phenyl-1H-imidazole-2-thione]	3.7 (≈ 11.3 µM)	> 15.4	214	4.2	<1	15.4 (≈ 47.2 µM)
Cc1ccc(Nn2c(-c3ccccc3)c(C)[nH]c2=S)cc1Cl [Compound 9.15, 1-(3-Chloro-4-methylphenylamino)-2,3-dihydro-4-methyl-5-phenyl-1H-imidazole-2-thione]	3.6 (≈ 10.9 µM)	> 16.9	190	4.7	<1	16.9 (≈ 51.2 µM)
Cc1[nH]c(=S)n(Nc2ccccc2)c1-c1ccccc1 [Compound 9.12, 2,3-Dihydro-4-methyl-5-phenyl-1-(phenylamino)-1H-imidazole-2-thione]	5.2 (≈ 18.5 µM)	> 14.7	224 to 226	2.8	<1	14.7 (≈ 52.2 µM)
Cc1[nH]c(=S)n(Nc2cccc(Cl)c2)c1-c1ccccc1 [Compound 9.01, 1-(3-Chlorophenylamino)-2,3-dihydro-4-methyl-5-phenyl-1H-imidazole-2-thione]	2.8 (≈ 8.87 µM)	2.6 (≈ 8.23 µM)	215 to 217	7.6	8.4	21.5 (≈ 68.1 µM)

Second part, led by results:

IC50 [1] [µg/mL]	IC50 [2] [µg/mL]	melting point [°C]	SMILES	HIV-1 (NL4.3 WT) SI [1]	HIV-2 (ROD) SI [2]	CC50 [3] [µg/mL]
1.4 (≈ 5.32 µM)	> 7.6	159	Cc1cccc(Nn2cnc(C)c2-c2ccccc2)c1 [Compound 13.09, 4-Methyl-1-(3-methylphenylamino)-5-phenyl-1H-imidazole]	5.6	<1	7.6 (≈ 28.9 µM)
0.5 (≈ 1.38 µM)	0.3 (≈ 0.827 µM)	164	Cc1ncn(Nc2cccc(Cl)c2)c1-c1cccc(Br)c1 [Compound 13.02, 5-(3-Bromophenyl)-1-(3-chlorophenylamino)-4-methyl-1H-imidazole]	6.7	9.5	3.13 (≈ 8.63 µM)
0.5 (≈ 1.76 µM)	0.5 (≈ 1.76 µM)	218	Cc1ncn(Nc2cccc(Cl)c2)c1-c1ccccc1 [Compound 13.01, 1-(3-Chlorophenylamino)-4-methyl-5-phenyl-1H-imidazole]	6.0	6.9	3.25 (≈ 11.5 µM)
